Where two headings read alike, the source gives them in different places.
Key:
[1] = target: Bcl-2 (Homo sapiens (Human), UniProt P10415); assay: Time Resolved-Fluorescence Resonance Energy Transfer (TR-FRET) Bcl-2 binding assay
Procedure: The samples are then mixed on a shaker for 1 minute and incubated for an additional 3 hours at room temperature. For each assay, the probe/antibody and protein/probe/antibody were included on each assay plate as negative and positive controls, respectively.
The samples were then mixed on a shaker for 1 minute and incubated for an additional 3 hours at room temperature. For each assay, the probe/antibody and protein/probe/antibody were included on each assay plate as negative and positive controls, respectively.

[2] = tested on: RS4;11 cells; assay: RS4;11 cell viability assay (CellTiter Glo); assay type: cell-based, human; conditions: Homo sapiens, read-out: RS4;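 also: acute lymphoblastic leukemia line RS4,11, EC50 derived from percentage of viable cells after treatment relative to untreated controls, cell killing taken as a measure of Bcl-2 inhibition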
Procedure: The acute lymphoblastic leukemia (ALL) cell line RS4;11 was used as the primary human cell line to assess the cellular activity of Bcl-2 selective agents in vitro and their efficacy in vivo.
Cell cytotoxicity EC50 values were assessed using CellTiter Glo (Promega) according to the manufacturer's recommendations. The EC50 values were determined as a percentage of viable cells following treatment compared to the untreated control cells.

[3] = tested on: RS4;11 cells; conditions: RS4;11 acute lymphoblastic leukemia cell line; cited from earlier work
[4] = Table 5, direct comparison Z=N with corresponding analogs Z=C, read-out: Bcl-2 FRET ki
[5] = RS4-11, 48 h, 50,000 cells per well, 10% human serum, 48 hours, 11 EC50 Values
[6] = RS4-11, Table 5, direct comparison Z=N with corresponding analogs Z=C, 11 EC50
[7] = GST-Bcl-2 1 nM, F-Bak peptide probe 100 nM, Tb-anti-GST 1 nM, < means below limit of detection, read-out: TR-FRET Bcl-2 Binding Ki

Bcl-2, sequence (P10415 whole entry): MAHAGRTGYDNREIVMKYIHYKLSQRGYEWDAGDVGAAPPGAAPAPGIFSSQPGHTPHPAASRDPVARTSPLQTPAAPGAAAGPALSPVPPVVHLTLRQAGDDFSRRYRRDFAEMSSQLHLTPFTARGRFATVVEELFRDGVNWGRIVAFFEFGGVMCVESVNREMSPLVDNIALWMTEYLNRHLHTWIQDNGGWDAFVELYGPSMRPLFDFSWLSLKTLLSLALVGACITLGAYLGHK

| SMILES | Ki [1, 4] | EC50 [2, 5] | EC50 [2, 6] | Ki ([1]; read-out: Bcl-2 FRET ki) | Ki [1] | sensitivity of RS4;11 cells to inhibitor [3] | Ki [1, 7] |
| --- | --- | --- | --- | --- | --- | --- | --- |
| CC1(C)CCC(CN2CCN(c3ccc(C(=O)NS(=O)(=O)c4ccc(N[C@H]5CC[C@H](N6CCOCC6)CC5)c([N+](=O)[O-])c4)c(Oc4cnc5[nH]ccc5c4)c3)CC2)=C(c2ccc(Cl)cc2)C1 [Example 9, Trans-4-(4-{[2-(4-chlorophenyl)-4,4-dimethylcyclohex-1-en-1-yl]methyl}piperazin-1-yl)-N-({4-[(4-morpholin-4-ylcyclohexyl)amino]-3-nitrophenyl}sulfonyl)-2-(1H-pyrrolo[2,3-b]pyridin-5-yloxy)benzamide] | < 0.01 nM | 14.8 nM | 15 nM |  |  |  |  |
| CC1(C)CCC(CN2CCN(c3ccc(C(=O)NS(=O)(=O)c4ccc(NC5CCN(C6CCOCC6)CC5)c([N+](=O)[O-])c4)c(Oc4ccc5[nH]ccc5c4)c3)CC2)=C(c2ccc(Cl)cc2)C1 [Example 89, 4-(4-{[2-(4-chlorophenyl)-4,4-dimethylcyclohex-1-en-1-yl]methyl}piperazin-1-yl)-2-(1H-indol-5-yloxy)-N-({3-nitro-4-[(1-tetrahydro-2H-pyran-4-ylpiperidin-4-yl)amino]phenyl}sulfonyl)benzamide] |  | 64.5 nM | 64 nM | 0.074 nM |  |  |  |
| CC1(C)CCC(CN2CCN(c3ccc(C(=O)NS(=O)(=O)c4ccc(OC[C@H]5CC[C@@H](N6CCOCC6)C5)c([N+](=O)[O-])c4)c(Oc4cnc5[nH]ccc5c4)c3)CC2)=C(c2ccc(Cl)cc2)C1 (relative stereo) [Example 188] |  | 16.4 nM |  |  | < 0.01 nM |  |  |
| CN1CCC(Nc2ccc(S(=O)(=O)NC(=O)c3ccc(N4CCN(CC5=C(c6ccc(Cl)cc6)CC(C)(C)CC5)CC4)cc3Oc3cnc4[nH]ccc4c3)cc2[N+](=O)[O-])CC1 [Example 4, 4-(4-{[2-(4-chlorophenyl)-4,4-dimethylcyclohex-1-en-1-yl]methyl}piperazin-1-yl)-N-({4-[(1-methylpiperidin-4-yl)amino]-3-nitrophenyl}sulfonyl)-2-(1H-pyrrolo[2,3-b]pyridin-5-yloxy)benzamide] | < 0.01 nM | 18.5 nM | 19 nM |  |  |  |  |
| CC1(C)CCC(CN2CCN(c3ccc(C(=O)NS(=O)(=O)c4ccc(OCC5COCCO5)c([N+](=O)[O-])c4)c(Oc4cnc5[nH]ccc5c4)c3)CC2)=C(c2ccc(Cl)cc2)C1 (stereo not shown) [Example 12, 4-(4-{[2-(4-chlorophenyl)-4,4-dimethylcyclohex-1-en-1-yl]methyl}piperazin-1-yl)-N-{[4-(1,4-dioxan-2-ylmethoxy)-3-nitrophenyl]sulfonyl}-2-(1H-pyrrolo[2,3-b]pyridin-5-yloxy)benzamide] | < 0.01 nM | 34.7 nM | 35 nM |  |  |  |  |
| CN(C)CC[C@H](CSc1ccccc1)Nc1ccc(S(=O)(=O)NC(=O)c2ccc(N3CCN(Cc4ccccc4-c4ccc(Cl)cc4)CC3)cc2)cc1[N+](=O)[O-] [ABT-737, N-(4-(4-((4′-chloro(1,1′-biphenyl)-2-yl)methyl)piperazin-1-yl)benzoyl)-4-(((1R)-3-(dimethylamino)-1-((phenylsulfanyl)methyl)propyl)amino)-3-nitrobenzenesulfonamide] |  |  |  |  |  | sensitive |  |
| CC1(C)CC(c2ccc(Cl)cc2)=C(CN2CCN(c3ccc(C(=O)NS(=O)(=O)c4ccc(NCC5CCOCC5)c([N+](=O)[O-])c4)c(Oc4cnc5[nH]ccc5c4)c3)CC2)CO1 [Example 15, 4-(4-{[4-(4-chlorophenyl)-6,6-dimethyl-5,6-dihydro-2H-pyran-3-yl]methyl}piperazin-1-yl)-N-({3-nitro-4-[(tetrahydro-2H-pyran-4-ylmethyl)amino]phenyl}sulfonyl)-2-(1H-pyrrolo[2,3-b]pyridin-5-yloxy)benzamide] | < 0.01 nM | 12.8 nM | 13 nM |  |  |  | < 0.01 nM |
| CC1(C)CCC(CN2CCN(c3ccc(C(=O)NS(=O)(=O)c4ccc(OC[C@H]5CCN(C6COC6)C5)c([N+](=O)[O-])c4)c(Oc4cnc5[nH]ccc5c4)c3)CC2)=C(c2ccc(Cl)cc2)C1 [Example 184, 4-(4-{[2-(4-chlorophenyl)-4,4-dimethylcyclohex-1-en-1-yl]methyl}piperazin-1-yl)-N-[(3-nitro-4-{[(3S)-1-oxetan-3-ylpyrrolidin-3-yl]methoxy}phenyl)sulfonyl]-2-(1H-pyrrolo[2,3-b]pyridin-5-yloxy)benzamide] |  | 23.2 nM |  |  |  |  | < 0.01 nM |
| COCCNc1ccc(S(=O)(=O)NC(=O)c2ccc(N3CCN(CC4=C(c5ccc(Cl)cc5)CC(C)(C)CC4)CC3)cc2Oc2cnc3[nH]ccc3c2)cc1[N+](=O)[O-] [Example 10, 4-(4-{[2-(4-chlorophenyl)-4,4-dimethylcyclohex-1-en-1-yl]methyl}piperazin-1-yl)-N-({4-[(2-methoxyethyl)amino]-3-nitrophenyl}sulfonyl)-2-(1H-pyrrolo[2,3-b]pyridin-5-yloxy)benzamide] | < 0.01 nM | 52 nM | 52 nM |  |  |  |  |
| CC1(C)CCC(CN2CCN(c3ccc(C(=O)NS(=O)(=O)c4ccc(OC[C@H]5CC[C@H](O)CC5)c([N+](=O)[O-])c4)c(Oc4cnc5[nH]ccc5c4)c3)CC2)=C(c2ccc(Cl)cc2)C1 [Example 120, 2-(1H-pyrrolo[2,3-b]pyridin-5-yloxy)-4-(4-((2-(4-chlorophenyl)-4,4-dimethylcyclohex-1-enyl)methyl)piperazin-1-yl)-N-(4-((trans-4-hydroxycyclohexyl)methoxy)-3-nitrophenylsulfonyl)benzamide] |  | 1.47 nM |  |  |  |  | < 0.01 nM |
| CC1(C)CCC(CN2CCN(c3ccc(C(=O)NS(=O)(=O)c4ccc(OCC5CCN(C6COC6)CC5)c([N+](=O)[O-])c4)c(Oc4cnc5[nH]ccc5c4)c3)CC2)=C(c2ccc(Cl)cc2)C1 [Example 191, 4-(4-{[2-(4-chlorophenyl)-4,4-dimethylcyclohex-1-en-1-yl]methyl}piperazin-1-yl)-N-({3-nitro-4-[(1-oxetan-3-ylpiperidin-4-yl)methoxy]phenyl}sulfonyl)-2-(1H-pyrrolo[2,3-b]pyridin-5-yloxy)benzamide] |  | 6.91 nM |  |  |  |  | < 0.01 nM |
| CC1(C)CCC(CN2CCN(c3ccc(C(=O)NS(=O)(=O)c4ccc(NC[C@H]5CCCOC5)c([N+](=O)[O-])c4)c(Oc4cnc5[nH]ccc5c4)c3)CC2)=C(c2ccc(Cl)cc2)C1 [Example 13, 4-(4-{[2-(4-chlorophenyl)-4,4-dimethylcyclohex-1-en-1-yl]methyl}piperazin-1-yl)-N-[(3-nitro-4-{[(3R)-tetrahydro-2H-pyran-3-ylmethyl]amino}phenyl)sulfonyl]-2-(1H-pyrrolo[2,3-b]pyridin-5-yloxy)benzamide] | < 0.01 nM | 23.2 nM | 23 nM |  |  |  |  |

From US20240043404A1 (AbbVie Inc., priority 2009, published 2024)
